{"source": "paper PMC12668308", "about": "“A Novel Antimalarial Agent that Inhibits Protein Synthesis in Plasmodium falciparum” (Angewandte Chemie (International Ed. in English), 2025)", "key": {"[1]": {"test_system": "Dd2b2^31-R3.2", "test": "[3H]-hypoxanthine incorporation assay", "assay_type": "cell-based, Plasmodium falciparum", "procedure": "(§1) P. falciparum asexual blood stage parasites were cultured in human red blood cells (RBC, Blutspende SRK, Zurich) at a hematocrit of 5% in RPMI 1640 medium. The RPMI 1640 medium (ThermoFisher Scientific #51800−043) was supplemented with the following: 24 mM NaHCO3 (pH 7.3, Sigma-Aldrich #31437−500G-R), 25 mM Hepes (Sigma-Aldrich #H4034−500G), 0.36 mM hypoxanthine (Sigma-Aldrich # H9377−25G), 100 µg mL^-1 neomycin (Sigma-Aldrich #N6386−100G) and 0.5% Albumax II (Thermo Fisher #11021−045). Additionally, 2 mM choline chloride (279 mg/L, Sigma-Aldrich #C7527−100G) was added to the culture to block the induction of sexual commitment as described. ^[31^] The RPMI 1640 medium and components were dissolved in water (Milli-Q purified), stirred for at least 3 h, and then sterile filtered (0.22 μm pore size) with a bottle top filter (Corning # 431118). Parasite cultures were maintained in an atmosphere of 3% O2, 4% CO2, and 93% N2 in air-tight chambers at 37 °C. The [^3H]-hypoxanthine incorporation assay was used to test compound activity in the specific parasite lines as described.^[32^] Briefly, compounds were dissolved in DMSO (10 mM) and diluted in a hypoxanthine-free culture medium. A limiting dilution was performed over a 64-fold range (6-step twofold dilution) in a 96-well plate in duplicates. For every starting concentration, a limiting dilution was performed over a 64-fold range (6-step twofold dilution) in a 96-well plate in two biological duplicates. Parasites were added at 100 µL to each well containing the compound to obtain a final parasitemia of 0.3% and haematocrit of 1.25%. The plates were incubated for 48 h before 0.25 µCi of [^3H]-hypoxanthine was added per well for an additional 24 h. Parasites were harvested on a glass-fiber filter with a Microbeta FilterMate cell harvester (Perkin Elmer, Waltham, USA) and radioactivity was counted using a MicroBeta2 liquid scintillation counter (Perkin Elmer, Waltham, US). […] The fifty percent inhibitory concentration (IC50) was calculated by using nonlinear, four parameter (variable slope) curve fitting as described ^[33^] after importing into GraphPad Prism (version 8.3.0).\n(§2) 31 was used for resistance selection studies using the strain Dd2b2 (kindly provided by David Fidock). Resistance selection was done as described in ^[34^]. As summarized in Table S3, an initial inoculum of 2 x 10^9 asexual blood stage parasites (at 2-2.5% parasitemia) were cultured in three independent flasks. […] Cloning via limiting dilution was performed to obtain resistant clones for further characterization as described in section 2.2.5."}, "[2]": {"test_system": "Dd2b2^31-R1.1", "test": "[3H]-hypoxanthine incorporation assay", "assay_type": "cell-based, Plasmodium falciparum", "procedure": "as §1, §2"}, "[3]": {"test_system": "Dd2b2^31-R2.1", "test": "[3H]-hypoxanthine incorporation assay", "assay_type": "cell-based, Plasmodium falciparum", "procedure": "as §1, §2"}, "[4]": {"test_system": "Dd2b2^31-R3.1", "test": "[3H]-hypoxanthine incorporation assay", "assay_type": "cell-based, Plasmodium falciparum", "procedure": "as §1, §2"}, "[5]": {"test_system": "Dd2b2^31-R1.2", "test": "[3H]-hypoxanthine incorporation assay", "assay_type": "cell-based, Plasmodium falciparum", "procedure": "as §1, §2"}, "[6]": {"test_system": "Dd2b2^31-R2.2", "test": "[3H]-hypoxanthine incorporation assay", "assay_type": "cell-based, Plasmodium falciparum", "procedure": "as §1, §2"}, "[7]": {"test_system": "Dd2b2^WT", "test": "[3H]-hypoxanthine incorporation assay", "assay_type": "cell-based, Plasmodium falciparum", "conditions": "for IC50: Plasmodium falciparum", "procedure": "as §1, §2"}, "[8]": {"test": "Metabolic stability in liver S9 fractions", "assay_type": "in vitro ADME", "conditions": "pooled mouse liver S9 fraction; 1 μM compound, 1 mg/mL pooled mouse liver S9, 37 °C; read-out: t1/2 Mouse Liver S9", "procedure": "To evaluate phase I and phase II metabolic stability, the compound (1 μM) was incubated at 37 °C for 240 min with 1 mg/mL pooled mouse liver S9 fraction (Xenotech, Kansas City, USA), 2 mM NADPH, 1 mM UDPGA, 10 mM MgCl2, 5 mM GSH and 0.1 mM PAPS. Metabolic stability of reference compounds: testosterone, verapamil and ketoconazole was determined in parallel to confirm the enzymatic activity of mouse S9 fractions. At defined time points, the incubation was stopped by precipitation of aliquots of S9 enzymes with 2 volumes of cold acetonitrile containing internal standard (150 nM diphenhydramine or 15 nM for Altis Plus measurements). Samples were kept on ice until the end of the incubation, after which precipitated protein was removed by centrifugation (15 min, 4 °C, 4,000 g)."}, "[9]": {"conditions": "Plasmodium falciparum, read-out: mean IC50 value ± s.d."}}, "note": "Read-outs that look alike come from different tables or passages of the source.", "data": [{"smiles": "CN1CCN(Cc2ccc(O)c(NC(=O)c3cccc(Oc4cc(C(F)(F)F)ccn4)c3)c2)CC1", "note": "[Compound 31, N-(2-hydroxy-5-((4-methylpiperazin-1-yl)methyl)phenyl)-3-((4-(trifluoromethyl)pyridin-2-yl)oxy)benzamide]", "values": [{"measurement": "IC50 fold change relative to Dd2b2^WT", "setting": "[1]; Dd2b2^31-R3.2", "value": 19.8}, {"measurement": "IC50", "setting": "[1]; [9]", "value": "264 ± 40.5", "unit": "nM"}, {"measurement": "IC50 fold change relative to Dd2b2^WT", "setting": "[2]; Dd2b2^31-R1.1", "value": 2.7}, {"measurement": "IC50", "setting": "[2]; [9]", "value": "35.8 ± 11.2", "unit": "nM"}, {"measurement": "IC50 fold change relative to Dd2b2^WT", "setting": "[3]; Dd2b2^31-R2.1", "value": 16.9}, {"measurement": "IC50", "setting": "[3]; [9]", "value": "225 ± 35.3", "unit": "nM"}, {"measurement": "IC50 fold change relative to Dd2b2^WT", "setting": "[4]; Dd2b2^31-R3.1", "value": 14.5}, {"measurement": "IC50", "setting": "[4]; [9]", "value": "192 ± 35.3", "unit": "nM"}, {"measurement": "IC50 fold change relative to Dd2b2^WT", "setting": "[5]; Dd2b2^31-R1.2", "value": 11.9}, {"measurement": "IC50", "setting": "[5]; [9]", "value": "159 ± 32.9", "unit": "nM"}, {"measurement": "IC50 fold change relative to Dd2b2^WT", "setting": "[6]; Dd2b2^31-R2.2", "value": 11.6}, {"measurement": "IC50", "setting": "[6]; [9]", "value": "154 ± 26.3", "unit": "nM"}, {"measurement": "IC50 fold change relative to Dd2b2^WT", "setting": "[7]; Dd2b2^WT", "value": 1.0}, {"measurement": "IC50", "setting": "[7]; 72 h, read-out: Parent (Dd2b2^WT) IC50", "value": "4.5 ± 0.7", "unit": "nM"}, {"measurement": "IC50", "setting": "[7]; read-out: mean IC50 value ± s.d.", "value": "13.3 ± 1.7", "unit": "nM"}, {"measurement": "half-life at 1 µM", "setting": "[8]", "value": "42.7 ± 3.7", "unit": "min"}]}]}
